{"source": "patent US12433857B2", "about": "“Conjugate and cancer therapeutic agent” (Tokyo Institute of Technology, priority 2019, dated 2025)", "key": {"DLD-1 cells [1]": {"tested_on": "DLD-1 cells", "experiment": "Cell cycle analysis by propidium iodide staining", "assay_type": "cell-based, human", "conditions": "72 hours", "description": "The cell cycle was analyzed by propidium iodide (PI) staining to investigate the mechanism of cancer cell proliferation suppression of DFO and PEG-P[Asp(DFO)m]n.\n[Preparation of DFO Solution and PEG-P[Asp(DFO)10]35 Solution] • DFO/D-PBS solution: 45.0 μM • PEG-P[Asp(DFO)10]35/D-PBS solution: 61.0 μM (DFO concentration=600 μM)\nDLD-1 cells were seeded on a 6-well plate at 2.0×10^5 cells/well and pre-cultured at 37° C. under 5% CO2 for 24 hours. The prepared solution described above was diluted 10-fold with RPMI, and then 3 mL was added to each well followed by incubating for 72 hours. After washing with 3 mL of D-PBS, 700 μL of a Trypsin-EDTA solution was added thereto followed by incubating for 10 min. After confirming that the cells had been peeled off under an optical microscope, 700 μL of D-PBS containing 10% FBS was added thereto, and the cells were sufficiently suspended. The suspension was centrifuged at 1,200 rpm for 3 min to remove the supernatant. 500 μL of D-PBS was added to the cell pellet, which was subsequently suspended. The suspension was dropwise added to 4.5 mL of 70% ethanol and fixed in a −20° C. freezer overnight. […] Finally, the suspension was filtered through a cell strainer, and the fluorescence of propidium iodide was measured using FCM. The measured data were analyzed by ModFit LT. […]"}, "DLD-1 cells [2]": {"tested_on": "DLD-1 cells", "experiment": "Apoptosis induction by PI staining and Annexin V staining", "assay_type": "cell-based, human", "conditions": "1.00 mM DFO-concentration solution diluted 10-fold, 24 hours", "description": "In order to investigate whether DFO and PEG-P[Asp(DFO)m]n would induce apoptosis, apoptotic cells were detected by PI staining and Annexin V staining.\n[Preparation of DFO Solution and PEG-P[Asp(DFO)10]35 Solution] • DFO/D-PBS solution: 1.00 mM • PEG-P[Asp(DFO)10]35/D-PBS solution: 100 μM (DFO concentration=1.00 mM)\nDLD-1 cells were seeded on a 6-well plate at 1.0×10^5 cells/well and pre-cultured at 37° C. under 5% CO2 for 24 hours. After removing the solution, 3 mL of the prepared solution described above, diluted 10-fold with RPMI, was added to each well followed by incubating for 24 hours. After washing with 3 mL of D-PBS, 700 μL of a Trypsin-EDTA solution was added thereto followed by incubating for 10 min. After confirming that the cells had peeled off under an optical microscope, 700 μL of RPMI was added and suspended sufficiently. The suspension was centrifuged at 1,200 rpm for 3 min to remove the supernatant. 500 μL of RPMI was added, the number of cells was measured, and the cells in each sample were made to the same number. The suspension was centrifuged at 1,200 rpm for 3 min to remove the supernatant. […] After adding 400 μL of the binding buffer, the suspension was filtered through a cell strainer, and the fluorescence of PI and Annexin V was measured using FCM. […] The statistical significance was evaluated by Tukey's multiple comparison test (**** p<0.0001)."}, "[3]": {"conditions": "Non-Patent Documents 4 to 6; cited from earlier work"}, "DLD-1 cells [4]": {"tested_on": "DLD-1 cells", "experiment": "Cell proliferation suppressive action by CCK-8 assay", "assay_type": "cell-based, human", "conditions": "72 hours, CCK-8, absorbance at 450 nm", "description": "The cancer cell proliferation suppressive action of PEG-P[Asp(DFO)m]n was evaluated by CCK-8 assay.\n[Preparation of DFO Solution, PEG-P[Asp(DFO)10]35 Solution, and PEG-P[Asp(DFO)26]78 Solution] • DFO/D-PBS solution: 3.00 mM • PEG-P[Asp(DFO)10]35/D-PBS solution: 0.305 mM (DFO concentration=3.00 mM) • PEG-P[Asp(DFO)26]78/D-PBS solution: 0.118 mM (DFO concentration=3.00 mM)\nDLD-1 cells were seeded on a 96-well plate at 1.0×10^3 cells/well and pre-cultured at 37° C. under 5% CO2 for 24 hours. 10 μL of the prepared solution described above was added to each well followed by incubating for 72 hours. 10 μL of CCK-8 solution was added to each well, and after incubating for 2 hours, the absorbance at 450 nm was measured. The results are shown as the value of mean±S.D. (n=5), and a statistically significant difference was evaluated by the t-test (****p<0.0001)."}, "[5]": {"tested_on": "various cancer cell lines", "conditions": "Non-Patent Documents 1 to 3; cited from earlier work"}, "DLD-1 cells [6]": {"tested_on": "DLD-1 cells", "experiment": "DNA synthesis inhibition by BrdU staining", "assay_type": "cell-based, human", "conditions": "72 hours", "description": "To investigate the mechanism of cell cycle arrest in the S phase by DFO and PEG-P[Asp(DFO)m]n, DNA synthesis inhibition was evaluated by BrdU staining.\n[Preparation of DFO Solution and PEG-P[Asp(DFO)10]35 Solution] • DFO/D-PBS solution: 450 μM • PEG-P[Asp(DFO)10]35/D-PBS solution: […] (DFO concentration=600 μM) [Observation with Confocal Microscope]\nDLD-1 cells were seeded on 35 mm^2 glass base dishes at 1.0×10^5 cells/well and pre-cultured at 37° C. under 5% CO2 for 24 hours. After removing the solution, 3 mL of the prepared solution described above, diluted 10-fold with RPMI, was added to each well followed by incubating for 72 hours. Then, 330 μL of a 10 mM BrdU/D-PBS solution was added thereto followed by incubating for 1 hour. After removing the solution, 1 mL of 1.0 M HCl solution was added thereto followed by incubating for 10 min. After removing the solution, 1 mL of a 0.1 M sodium tetraborate buffer (pH 8.5) was added thereto followed by incubating for 30 min. […]\nDLD-1 cells were seeded on a 6-well plate at 2.0×10^5 cells/well and pre-cultured at 37° C. under 5% CO2 for 24 hours. […] The number of cells was measured, and the cells in each sample were made to the same number. […] Finally, the suspension was filtered through a cell strainer, and the fluorescence of BrdU was measured using FCM."}, "DLD-1 cells [7]": {"tested_on": "DLD-1 cells", "experiment": "Free iron in the cytoplasm detected with FerroOrange", "assay_type": "cell-based, human", "conditions": "2.00 mM DFO-concentration solution diluted 10-fold, 24 hours", "description": "To investigate whether DFO and PEG-P[Asp(DFO)m]n would decrease free iron in the cytoplasm, the free iron in the cytoplasm of cells treated with DFO and PEG-P[Asp(DFO)m]n was detected with FerroOrange.\n[Preparation of DFO Solution and PEG-P[Asp(DFO)10]35 Solution] • DFO/D-PBS solution: 2.00 mM • PEG-P[Asp(DFO)10]35/D-PBS solution: […] (DFO concentration=2.00 mM) [Observation with Confocal Microscope]\nDLD-1 cells were seeded on 35 mm^2 glass base dishes at 3.0×10^5 cells/well and pre-cultured at 37° C. under 5% CO2 for 24 hours. After removing the solution, 2 mL of the prepared solution described above, diluted 10-fold with RPMI, was added to each dish followed by incubating for 24 hours. After washing with 2 mL of serum-free RPMI, 1 mL of serum-free RPMI containing […] FerroOrange was added thereto followed by incubating in a dark place for 30 min. Thereafter, the fluorescence of FerroOrange was observed by CLSM.\nDLD-1 cells were seeded on a 96-well plate at 1.0×10^4 cells/well and pre-cultured at 37° C. under 5% CO2 for 24 hours. After removing the solution, 100 μL of the prepared solution described above, diluted 10-fold with RPMI, was added to each well followed by incubating for 24 hours. […] Then, the fluorescence intensity of FerroOrange was measured with a plate reader. […] The statistical significance was evaluated by Tukey's multiple comparison test (****p<0.0001)."}, "[8]": {"experiment": "Pharmacokinetics (blood retention, tumor accumulation) in subcutaneous CT26 tumor mouse model", "assay_type": "in vivo", "conditions": "intravenous", "description": "To evaluate the blood retention and the tumor accumulation of DFO and PEG-P[Asp(DFO)m]n), a DFO/Ga (III) complex and a PEG-P[Asp(DFO)m]n/Ga (III) complex were intravenously injected into the subcutaneous CT26 tumor mouse model, and the Ga contents in the blood and the tumor after a predetermined period of time were measured by ICP-MS.\n300 μL of a 26.8 mM GaCl3/D-PBS solution was added to 2.70 mL of a 16.9 mM DFO/D-PBS solution, and the resultant solution was stirred overnight. The pH was adjusted to 7.4 with NaOH, and then the solution was filtered through a filter.\n300 μL of 26.8 mM GaCl3/D-PBS solution was added to 2.70 mL of a 1.71 mM PEG-P[Asp(DFO)10]35/D-PBS solution (DFO concentration=16.9 mM), and the resultant solution was stirred overnight. The reaction solution was placed in an ultrafiltration membrane (MWCO=10 kD) and subjected to ultrafiltration five times. 3 mL of D-PBS was added to the purified solution, and the resultant solution was filtered through a filter. […]\n100 μl of the prepared solution described above was intravenously administered (DFO: […]) to the tail vein of a model mouse of which the tumor size reached about 200 mm^3. […] After filling up to 10 mL with pure water and filtration with a hydrophobic filter, the gallium contents of the blood and the various organs were measured by ICP-MS. […]"}}, "note": "Entries after “also recorded” stand apart in the source; their conditions may differ. Counter-ions that a name gives are not always drawn."}
{"smiles": "CC(=O)N(O)CCCCCNC(=O)CCC(=O)N(O)CCCCCNC(=O)CCC(=O)N(O)CCCCCN", "note": "[DFO, Deferoxamine mesylate]", "values": [{"measurement": "cell cycle arrest", "setting": "DLD-1 cells [1]", "value": "induced cell cycle arrest in the S phase"}, {"measurement": "proportion of apoptotic and necrotic cells", "setting": "DLD-1 cells [2]", "value": "significantly increased the proportion of apoptotic and necrotic cells"}, {"measurement": "half-life of the in-blood concentration", "setting": "[3]", "value": "≤ 20", "unit": "min"}, {"measurement": "cell proliferation suppression", "setting": "DLD-1 cells [4]", "value": "significantly suppressed the proliferation"}, {"measurement": "cell proliferation suppressive effect", "setting": "[5]", "value": "cell proliferation suppressive effect through cell cycle arrest"}, {"measurement": "DNA synthesis inhibition (BrdU uptake)", "setting": "DLD-1 cells [6]", "value": "BrdU uptake was significantly suppressed"}, {"measurement": "free iron in the cytoplasm (FerroOrange fluorescence)", "setting": "DLD-1 cells [7]", "value": "markedly decreased free iron in the cytoplasm"}, {"measurement": "blood retention (in words)", "setting": "[8]", "value": "rapid disappearance from the blood; also recorded: disappeared from the blood at an early stage"}]}
